Laboratory results taken from ChEMBL document CHEMBL3045728, “Synthesis, physico-chemical properties, and antimicrobial evaluation of a new series of iron(III) hexadentate chelators” (Med Chem Res, 2013).
≈ marks a conversion by molar mass, not a printed value.

Assays:
Bacillus cereus = test: Antimicrobial activity against Bacillus cereus assessed as growth inhibition incubated for 2 hr measured after 24 hr by turbidity based assay; assay type: functional
Escherichia coli = test: Antimicrobial activity against Escherichia coli assessed as growth inhibition incubated for 2 hr measured after 24 hr by turbidity based assay; assay type: functional
Bacillus subtilis = test: Antimicrobial activity against Bacillus subtilis assessed as growth inhibition incubated for 2 hr measured after 24 hr by turbidity based assay; assay type: functional
Pseudomonas aeruginosa = test: Antimicrobial activity against Pseudomonas aeruginosa assessed as growth inhibition incubated for 2 hr measured after 24 hr by turbidity based assay; assay type: functional
Staphylococcus aureus = test: Antimicrobial activity against Staphylococcus aureus assessed as growth inhibition incubated for 2 hr measured after 24 hr by turbidity based assay; assay type: functional
[1] = Iron chelating activity of the compound assessed as stability constant of Fe3+-compound complex after 5 min by spectrophotometric titration analysis; assay type: physicochemical
[2] = Iron chelating activity of the compound assessed as stability constant of Fe3+-compound complex; assay type: physicochemical

| SMILES | MIC (Bacillus cereus) | MIC (Escherichia coli) | MIC (Bacillus subtilis) | MIC (Pseudomonas aeruginosa) | MIC (Staphylococcus aureus) | log K [1] | log K [2] |
| --- | --- | --- | --- | --- | --- | --- | --- |
| CCCCCCn1ccc(=O)c(O)c1C(=O)NCCN(CCNC(=O)c1c(O)c(=O)ccn1CCCCCC)CCNC(=O)c1c(O)c(=O)ccn1CCCCCC | 40 µg/mL (≈ 49.4 µM) | 80 µg/mL (≈ 98.8 µM) | 40 µg/mL (≈ 49.4 µM) | 40 µg/mL (≈ 49.4 µM) | 40 µg/mL (≈ 49.4 µM) | – | – |
| O=C(NCCN(CCNC(=O)c1c(O)c(=O)ccn1CCOCCO)CCNC(=O)c1c(O)c(=O)ccn1CCOCCO)c1c(O)c(=O)ccn1CCOCCO | 40 µg/mL (≈ 48.7 µM) | 40 µg/mL (≈ 48.7 µM) | 40 µg/mL (≈ 48.7 µM) | 40 µg/mL (≈ 48.7 µM) | 40 µg/mL (≈ 48.7 µM) | 32 | – |
| O=C(O)CN(CCN(CC(=O)O)CC(=O)O)CCN(CC(=O)O)CC(=O)O [PENTETIC ACID] | 80 µg/mL (≈ 203 µM) | 80 µg/mL (≈ 203 µM) | 80 µg/mL (≈ 203 µM) | 80 µg/mL (≈ 203 µM) | 40 µg/mL (≈ 102 µM) | – | 28.6 |
| O=C(NCCN(CCNC(=O)c1[nH]ccc(=O)c1O)CCNC(=O)c1[nH]ccc(=O)c1O)c1[nH]ccc(=O)c1O | 40 µg/mL (≈ 71.7 µM) | 80 µg/mL (≈ 143 µM) | 40 µg/mL (≈ 71.7 µM) | 24 µg/mL (≈ 43 µM) | 40 µg/mL (≈ 71.7 µM) | 30.7 | – |
| Cn1ccc(=O)c(O)c1C(=O)NCCN(CCNC(=O)c1c(O)c(=O)ccn1C)CCNC(=O)c1c(O)c(=O)ccn1C | 40 µg/mL (≈ 66.7 µM) | 24 µg/mL (≈ 40 µM) | 40 µg/mL (≈ 66.7 µM) | 24 µg/mL (≈ 40 µM) | 40 µg/mL (≈ 66.7 µM) | 32.1 | – |
| O=C(NCCN(CCNC(=O)c1c(O)c(=O)ccn1CCO)CCNC(=O)c1c(O)c(=O)ccn1CCO)c1c(O)c(=O)ccn1CCO | 40 µg/mL (≈ 58 µM) | 40 µg/mL (≈ 58 µM) | 40 µg/mL (≈ 58 µM) | 40 µg/mL (≈ 58 µM) | 80 µg/mL (≈ 116 µM) | – | – |
| CCn1ccc(=O)c(O)c1C(=O)NCCN(CCNC(=O)c1c(O)c(=O)ccn1CC)CCNC(=O)c1c(O)c(=O)ccn1CC | 40 µg/mL (≈ 62.3 µM) | 24 µg/mL (≈ 37.4 µM) | 40 µg/mL (≈ 62.3 µM) | 16 µg/mL (≈ 24.9 µM) | 40 µg/mL (≈ 62.3 µM) | 32.6 | – |
| CCCCn1ccc(=O)c(O)c1C(=O)NCCN(CCNC(=O)c1c(O)c(=O)ccn1CCCC)CCNC(=O)c1c(O)c(=O)ccn1CCCC | 80 µg/mL (≈ 110 µM) | 40 µg/mL (≈ 55.1 µM) | 80 µg/mL (≈ 110 µM) | 40 µg/mL (≈ 55.1 µM) | 80 µg/mL (≈ 110 µM) | – | – |

Continued, values first:

| MIC (Bacillus cereus) | MIC (Escherichia coli) | MIC (Bacillus subtilis) | MIC (Pseudomonas aeruginosa) | MIC (Staphylococcus aureus) | log K [1] | log K [2] | SMILES |
| --- | --- | --- | --- | --- | --- | --- | --- |
| – | – | – | – | – | – | 34 | O=C(O)C(NCCNC(C(=O)O)c1ccccc1O)c1ccccc1O (centres undefined) |
| – | – | – | – | – | – | 40 | O=C(O)CN(CCN(CC(=O)O)Cc1ccccc1O)Cc1ccccc1O |
| 80 µg/mL (≈ 109 µM) | 16 µg/mL (≈ 21.9 µM) | 40 µg/mL (≈ 54.7 µM) | 16 µg/mL (≈ 21.9 µM) | 80 µg/mL (≈ 109 µM) | 32.3 | – | COCCn1ccc(=O)c(O)c1C(=O)NCCN(CCNC(=O)c1c(O)c(=O)ccn1CCOC)CCNC(=O)c1c(O)c(=O)ccn1CCOC |
| – | – | – | – | – | – | 30.4 | CC(=O)N(O)CCCCCNC(=O)CCC(=O)N(O)CCCCCNC(=O)CCC(=O)N(O)CCCCCN [DEFEROXAMINE] |
